Common to all, as to assay: Bliss interaction score (quartile over a dose matrix) (fitness difference); higher = more antagonism (negative = synergy)
In experiment [1] the test system is S. pneumoniae D39V. The essentials:
(§1)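 The Bliss score is observed fitness minus expected fitness, where the expected value is the product of single-drug fitness values inferred from combination data. Fitness is OD595 at entry into stationary phase normalised to the plate's robust no-drug mean and capped at 1. Scores are reported as quartiles spanning technical, biological and donor/recipient replicates.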

The subject of experiment [2] is S. aureus DSM 20231. The essentials: as §1
Experiment [3] concerns S. aureus Newman. The essentials: as §1
Experiment [4] deals with B. subtilis 168. Put shortly: as §1
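Further: first quartile when negative (synergy) and third quartile when positive (antagonism).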

Regarding `N[C@@H]1CONC1=O` [CycloserineD] + CC(=O)NC[C@H]1CN(c2ccc(N3CCOCC3)c(F)c2)C(=O)O1 [Linezolid], the Bliss interaction score in experiment [1] was 0.146; in experiment [2], -0.125; in experiment [3] it was 0.06; in experiment [4], -0.0639.
`N[C@@H]1CONC1=O` [CycloserineD] + CC(=O)O[C@H]1C[C@@]2(C)[C@@H](C[C@@H](O)[C@H]3[C@@]4(C)CC[C@@H](O)[C@@H](C)[C@@H]4CC[C@@]32C)/C1=C(\CCC=C(C)C)C(=O)O [Fusidic acid]: the Bliss interaction score is 0.211 in experiment [1], 0.0576 in experiment [2], -0.0418 in experiment [3] and 0.0616 in experiment [4].
With `N[C@@H]1CONC1=O` [CycloserineD] + CC(C1CCC(C(O1)OC2C(CC(C(C2O)OC3C(C(C(CO3)(C)O)NC)O)N)N)N)NC [Gentamicin], the Bliss interaction score in experiment [1] (main component drawn) was -0.0744; in experiment [2] (main component drawn), -0.125; in experiment [3] (main component drawn), 0.0356; in experiment [4] (main component drawn), -0.0482.
Taken in the same sequence, the figures for `N[C@@H]1CONC1=O` [CycloserineD] + CCC(C)C1C(=O)NC(=C)C(=O)NC(C(=O)NC(CSCC(C(=O)N1)NC(=O)/C(=C/C)/NC(=O)C(C(C)CC)N)C(=O)NC2C(SCC(NC(=O)CNC(=O)C3CCCN3C2=O)C(=O)NC(CCCCN)C(=O)NC4C(SCC(NC(=O)CNC(=O)C(NC(=O)C(NC(=O)C(NC(=O)CNC4=O)C)CC(C)C)CCSC)C(=O)NC(CC(=O)N)C(=O)NC(CCSC)C(=O)NC(CCCCN)C(=O)NC5C(SCC6C(=O)NC(C(=O)NC(CSC(C(C(=O)N6)NC(=O)C(NC5=O)C)C)C(=O)NC(CO)C(=O)NC(C(C)CC)C(=O)NC(CC7=CN=CN7)C(=O)NC(C(C)C)C(=O)NC(=C)C(=O)NC(CCCCN)C(=O)O)CC8=CN=CN8)C)C)C)CC(C)C [Nisin] were 0.0554, 0.193, 0.0401 and 0.0525.
Turning to `N[C@@H]1CONC1=O` [CycloserineD] + CCCCCCCCCC(=O)N[C@@H]1[C@H]([C@@H]([C@H](O[C@H]1OC2=C3C=C4C=C2OC5=C(C=C(C=C5)[C@H]([C@H]6C(=O)N[C@@H](C7=C(C(=CC(=C7)O)OC8[C@H]([C@H]([C@@H]([C@H](O8)CO)O)O)O)C9=C(C=CC(=C9)[C@H](C(=O)N6)NC(=O)[C@@H]4NC(=O)[C@@H]1C2=CC(=CC(=C2)OC2=C(C=CC(=C2)[C@H](C(=O)N[C@H](CC2=CC(=C(O3)C=C2)Cl)C(=O)N1)N)O)O)O)C(=O)O)O[C@H]1[C@@H]([C@H]([C@@H]([C@H](O1)CO)O)O)NC(=O)C)Cl)CO)O)O [Teicoplanin], the Bliss interaction score in experiment [1] (main component drawn) is -0.0849; in experiment [2] (main component drawn), 0.0399; in experiment [3] (main component drawn), 0.054; in experiment [4] (main component drawn), 0.0976.
With `N[C@@H]1CONC1=O` [CycloserineD] + CCC[C@@H]1C[C@@H](C(=O)N[C@@H]([C@H]2O[C@H](SC)[C@H](O)[C@@H](O)[C@H]2O)[C@@H](C)O)N(C)C1 [Lincomycin], the Bliss interaction score in experiment [1] is 0.153; in experiment [2] it was -0.146; in experiment [3], 0.102; in experiment [4], -0.0375.
Taken in the same sequence, the figures for `N[C@@H]1CONC1=O` [CycloserineD] + CCN(CC)CCOC(=O)c1ccc(N)cc1 [Procaine] were -0.0723, 0.0639, 0.0381 and -0.0484.
In the case of `N[C@@H]1CONC1=O` [CycloserineD] + CC[C@H]1OC(=O)[C@H](C)C(=O)[C@H](C)[C@@H](O[C@@H]2O[C@H](C)C[C@H](N(C)C)[C@H]2O)[C@](C)(OC)C[C@@H](C)C(=O)[C@H](C)[C@H]2N(CCCCn3cnc(-c4cccnc4)c3)C(=O)O[C@]12C [Telithromycin], the Bliss interaction score in experiment [1] stood at 0.0906; in experiment [2], 0.116; in experiment [3], 0.0514; in experiment [4], 0.0974.
Consider `N[C@@H]1CONC1=O` [CycloserineD] + CC[C@H]1OC(=O)[C@H](C)[C@@H](O[C@H]2C[C@@](C)(OC)[C@@H](O)[C@H](C)O2)[C@H](C)[C@@H](O[C@@H]2O[C@H](C)C[C@H](N(C)C)[C@H]2O)[C@](C)(O)C[C@@H](C)C(=O)[C@H](C)[C@@H](O)[C@]1(C)O [Erythromycin], for which the Bliss interaction score was 0.0918 in experiment [1], -0.043 in experiment [2], -0.0485 in experiment [3] and 0.077 in experiment [4].
The corresponding values for `N[C@@H]1CONC1=O` [CycloserineD] + CN1C2=CC=CC=C2N=C3C1=CC=CC3=O [Pyocyanin] are 0.201, 0.0676, -0.0546 and -0.0572.
`N[C@@H]1CONC1=O` [CycloserineD] + CN(C)C(=O)C(CCN1CCC(O)(c2ccc(Cl)cc2)CC1)(c1ccccc1)c1ccccc1 [Loperamide]: the Bliss interaction score in experiment [1] was 0.289; in experiment [2], 0.0915; in experiment [3], 0.0674; in experiment [4] it was -0.209.
Taken in the same sequence, the figures for `N[C@@H]1CONC1=O` [CycloserineD] + CN(C)c1cc(NC(=O)CNC(C)(C)C)c(O)c2c1C[C@H]1C[C@H]3[C@H](N(C)C)C(O)=C(C(N)=O)C(=O)[C@@]3(O)C(O)=C1C2=O [Tigecycline] were -0.0514, 0.0966, 0.0356 and -0.0502.
Regarding `N[C@@H]1CONC1=O` [CycloserineD] + CN(N=O)C(=O)N[C@@H](C=O)[C@@H](O)[C@H](O)[C@H](O)CO [Streptozotocin], the Bliss interaction score is -0.16 in experiment [1], -0.14 in experiment [2], -0.0611 in experiment [3] and 0.0463 in experiment [4].
Taken in the same sequence, the figures for `N[C@@H]1CONC1=O` [CycloserineD] + CN[C@@H]1[C@H](O)[C@H](NC)[C@H]2O[C@@]3(O)C(=O)C[C@@H](C)O[C@H]3O[C@@H]2[C@H]1O [Spectinomycin] were 0.11, 0.0625, 0.0506 and -0.034.
As for `N[C@@H]1CONC1=O` [CycloserineD] + CN[C@@H]1[C@H](O[C@H]2[C@H](O[C@H]3[C@H](O)[C@@H](O)[C@H](N=C(N)N)[C@@H](O)[C@@H]3N=C(N)N)O[C@@H](C)[C@]2(O)C=O)O[C@@H](CO)[C@H](O)[C@H]1O [Streptomycin], the Bliss interaction score in experiment [1] was -0.108; in experiment [2], -0.136; in experiment [3], 0.0653; in experiment [4], -0.0511.
`N[C@@H]1CONC1=O` [CycloserineD] + CN[C@H](CC(C)C)C(=O)N[C@H]1C(=O)N[C@@H](CC(N)=O)C(=O)N[C@H]2C(=O)N[C@H]3C(=O)N[C@H](C(=O)N[C@H](C(=O)O)c4cc(O)cc(O)c4-c4cc3ccc4O)[C@H](O)c3ccc(c(Cl)c3)Oc3cc2cc(c3O[C@@H]2O[C@H](CO)[C@@H](O)[C@H](O)[C@H]2O[C@H]2C[C@](C)(N)[C@H](O)[C@H](C)O2)Oc2ccc(cc2Cl)[C@H]1O [Vancomycin]: the Bliss interaction score in experiment [1] was -0.069; in experiment [2], 0.0736; in experiment [3], 0.0656; in experiment [4] it was -0.113.
The corresponding values for `N[C@@H]1CONC1=O` [CycloserineD] + CN[C@H](CC(C)C)C(=O)N[C@H]1C(=O)N[C@@H](CC(N)=O)C(=O)N[C@H]2C(=O)N[C@H]3C(=O)N[C@H](C(=O)N[C@H](C(=O)O)c4cc(O)cc(O)c4-c4cc3ccc4O)[C@H](O[C@H]3C[C@](C)(N)[C@@H](O)[C@H](C)O3)c3ccc(c(Cl)c3)Oc3cc2cc(c3O[C@@H]2O[C@H](CO)[C@@H](O)[C@H](O)[C@H]2O[C@H]2C[C@](C)(NCc3ccc(-c4ccc(Cl)cc4)cc3)[C@@H](O)[C@H](C)O2)Oc2ccc(cc2Cl)[C@H]1O [Oritavancin] are 0.0458, -0.0757, 0.0585 and 0.0352.
Turning to `N[C@@H]1CONC1=O` [CycloserineD] + CO[C@@H]1[C@@H](OC(N)=O)[C@@H](O)[C@H](Oc2ccc3c(O)c(NC(=O)c4ccc(O)c(CC=C(C)C)c4)c(=O)oc3c2C)OC1(C)C [Novobiocin], the Bliss interaction score was determined as 0.187 in experiment [1], 0.0888 in experiment [2], 0.0912 in experiment [3] and 0.0651 in experiment [4].
Taken in the same sequence, the figures for `N[C@@H]1CONC1=O` [CycloserineD] + CO[C@@]12[C@H](COC(N)=O)C3=C(C(=O)C(C)=C(N)C3=O)N1C[C@@H]1N[C@@H]12 [MitomycinC] were 0.108, -0.0633, -0.0532 and 0.0912.

The values are drawn from the supplement of paper PMC10627819.
